According to US20230416199A1, “INHIBITORS OF AMINO ACID TRANSPORT” (ICAHN SCHOOL OF MEDICINE AT MOUNT SINAI, priority 2020, published 2023):
Like-named read-outs stand apart in the source and are kept apart here.

Assays:
Type in all cases: cell-based
rASCT2 = target: T1, rASCT2 (Rattus norvegicus, UniProt D3ZJ25); test: Electrophysiology (whole-cell current recording) of transfected HEK293 cells, rASCT2
T1 construct: expressed in transfected cells; host or cells: HEK293 (ATCC CRL-11268), transient transfection
T1 sequence (D3ZJ25 1-555): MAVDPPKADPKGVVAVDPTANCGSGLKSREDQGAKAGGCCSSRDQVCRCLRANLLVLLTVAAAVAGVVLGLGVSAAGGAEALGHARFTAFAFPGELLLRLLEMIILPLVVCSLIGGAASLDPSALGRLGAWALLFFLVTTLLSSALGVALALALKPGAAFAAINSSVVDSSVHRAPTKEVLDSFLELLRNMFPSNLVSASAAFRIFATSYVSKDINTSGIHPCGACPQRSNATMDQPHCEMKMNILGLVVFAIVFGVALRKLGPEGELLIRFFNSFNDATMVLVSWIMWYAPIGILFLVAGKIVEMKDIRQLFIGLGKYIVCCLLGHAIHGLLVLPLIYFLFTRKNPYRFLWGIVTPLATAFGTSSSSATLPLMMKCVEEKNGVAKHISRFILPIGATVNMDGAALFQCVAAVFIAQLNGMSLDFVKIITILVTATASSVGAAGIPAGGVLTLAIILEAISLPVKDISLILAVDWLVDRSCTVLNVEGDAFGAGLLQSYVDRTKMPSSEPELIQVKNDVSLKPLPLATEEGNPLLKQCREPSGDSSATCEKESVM
Protocol: (§1) Human embryonic kidney 293 (HEK293, ATCC CRL-11268) cells were cultured in DMEM media supplemented with 10% (v v) fetal bovine serum (FBS), 2 mM glutamine, 1% penicillin streptomycin solution, 1 mM sodium pyruvate and non-essential amino acids. Cells were maintained at 37° C. in a fully humidified atmosphere containing 5% CO2. rASCT2, hASCT2, hASCT1, EAAT1, EAAT2, EAAC1, EAAT5 and YFP complementary DNAs were each used to transiently transfect HEK293 using POLYPLUS Jet-prime transfection reagent. Cells were analyzed using electrophysiological techniques 24-40 hours after transfection.
(§2) Stock solutions of inhibitor was prepared in dimethyl sulfoxide (DMSO) up to 100 mM. Dilutions to working concentrations were made using external buffer. […] For rASCT2, hASCT2 and hASCT1, external buffer contained 140 mM NaCl, 2 mM MgCl2, 2 mM CaCl2), and 10 mM HEPES, pH 7.40 while internal pipette solution comprised of 130 mM NaSCN, 2 mM MgCl2, 10 mM EGTA, 10 mM HEPES and 10 mM alanine, pH 7.40. For specificity experiments with EAAT1, EAAT2, EAAC1 and EAAT5, internal solution contained 10 mM glutamate instead of alanine. Compounds were applied to HEK293 cells expressing DNA of interest suspended from a current recording electrode in whole cell configuration through a rapid solution exchange device. Cells are immersed in external buffer bath used to dissolve the inhibitors. The open pipette resistance was between 3 and 6 MΩ. Series resistance was not compensated in these experiments due to relatively small currents. Currents traces were recorded using an Adams and List EPC7 amplifier and digitized using a Molecular Devices Digidata A/D converter.
(§3) Linear and nonlinear curve fitting of the experimental data were analyzed using MicroCal Origin software. Nonlinear dose-response relationships were fitted with a Michaelis-Menten-like equation to obtain apparent Ki values in the absence of substrate (see TABLE 2 for Ki values). The figures show representative current traces and dose-response curves for hACST2 and rASCT2, used to obtain Ki values in TABLE 2 for compound SN 40. At least four experiments were performed with at least three different cells. Error bars in all graphs, e.g., in FIG. 1B and FIG. 1C and tables (Ki values) represent mean±SD.

hASCT2 [1] = target: T2, hASCT2 (Homo sapiens, UniProt Q15758); test: Electrophysiology (whole-cell current recording) of transfected HEK293 cells, hASCT2
T2 construct: expressed in transfected cells; host or cells: HEK293 (ATCC CRL-11268), transient transfection
T2 sequence (Q15758 1-541): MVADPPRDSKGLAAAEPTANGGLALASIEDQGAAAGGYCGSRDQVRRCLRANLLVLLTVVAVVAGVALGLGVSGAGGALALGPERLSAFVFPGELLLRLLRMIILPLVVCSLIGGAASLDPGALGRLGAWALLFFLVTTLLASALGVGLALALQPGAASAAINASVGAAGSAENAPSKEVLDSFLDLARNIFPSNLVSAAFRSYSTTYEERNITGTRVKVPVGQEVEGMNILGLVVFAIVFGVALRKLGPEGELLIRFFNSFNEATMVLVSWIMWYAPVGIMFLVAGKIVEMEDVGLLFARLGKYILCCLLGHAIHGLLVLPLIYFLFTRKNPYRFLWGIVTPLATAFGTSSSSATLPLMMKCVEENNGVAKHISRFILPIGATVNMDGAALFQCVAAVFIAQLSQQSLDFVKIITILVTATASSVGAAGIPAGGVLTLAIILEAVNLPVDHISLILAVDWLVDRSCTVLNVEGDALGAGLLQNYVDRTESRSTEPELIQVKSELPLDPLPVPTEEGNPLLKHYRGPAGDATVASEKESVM
Protocol: as §1, §2, §3

hASCT1 = target: T3, hASCT1 (Homo sapiens, UniProt P43007); test: Electrophysiology (whole-cell current recording) of transfected HEK293 cells, hASCT1
T3 construct: expressed in transfected cells; host or cells: HEK293 (ATCC CRL-11268), transient transfection
T3 sequence (P43007 1-532): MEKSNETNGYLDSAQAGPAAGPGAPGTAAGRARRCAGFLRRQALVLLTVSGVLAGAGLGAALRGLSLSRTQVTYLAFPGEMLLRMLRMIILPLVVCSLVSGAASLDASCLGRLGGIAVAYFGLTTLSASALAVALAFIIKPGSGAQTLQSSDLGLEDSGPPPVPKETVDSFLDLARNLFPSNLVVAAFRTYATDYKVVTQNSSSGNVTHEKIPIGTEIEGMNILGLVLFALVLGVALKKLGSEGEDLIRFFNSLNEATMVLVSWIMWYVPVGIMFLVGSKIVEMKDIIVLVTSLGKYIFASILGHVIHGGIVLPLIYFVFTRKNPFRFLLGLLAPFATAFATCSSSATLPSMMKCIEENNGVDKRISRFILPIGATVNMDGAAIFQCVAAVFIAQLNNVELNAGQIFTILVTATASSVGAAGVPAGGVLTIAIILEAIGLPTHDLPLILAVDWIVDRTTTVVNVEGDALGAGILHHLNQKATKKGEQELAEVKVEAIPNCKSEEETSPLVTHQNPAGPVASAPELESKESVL
Protocol: as §1, §2, §3

EAAT1 = target: T4, EAAT1 (Homo sapiens, UniProt P43003); test: Electrophysiology specificity experiment in transfected HEK293 cells, EAAT1; details: apparent Ki, HEK293, internal solution 10 mM glutamate, mean ± SD
T4 construct: expressed in transfected cells; host or cells: HEK293 (ATCC CRL-11268), transient transfection
Protocol: as §1, §2, §3

hASCT2 [2] = target: T2, hASCT2; test: Competition experiment with alanine, hASCT2; details: 1 mM ala, first entry of the cell
EAAT2 = target: T5, EAAT2 (Homo sapiens, UniProt P43004); test: Electrophysiology specificity experiment in transfected HEK293 cells, EAAT2; details: Table 3, dihydroxyproline derivatives; read-out: Ki All DNA: EAAT2
T5 construct: expressed in transfected cells; host or cells: HEK293 (ATCC CRL-11268), transient transfection
Protocol: as §1, §2, §3

[3] = Table 3, dihydroxyproline derivatives, read-out: Ki All DNA: rASCT2
[4] = Table 3, dihydroxyproline derivatives, read-out: Ki All DNA: hASCT2
[5] = Table 3, dihydroxyproline derivatives, read-out: Ki All DNA: hASCT1
[6] = apparent Ki in the absence of substrate, HEK293, mean ± SD, read-out: Ki rASCT2
[7] = apparent Ki in the absence of substrate, HEK293, mean ± SD, read-out: Ki hASCT2
[8] = apparent Ki in the absence of substrate, HEK293, mean ± SD, read-out: Ki hASCT1

T4 sequence (P43003 whole entry, species assumed): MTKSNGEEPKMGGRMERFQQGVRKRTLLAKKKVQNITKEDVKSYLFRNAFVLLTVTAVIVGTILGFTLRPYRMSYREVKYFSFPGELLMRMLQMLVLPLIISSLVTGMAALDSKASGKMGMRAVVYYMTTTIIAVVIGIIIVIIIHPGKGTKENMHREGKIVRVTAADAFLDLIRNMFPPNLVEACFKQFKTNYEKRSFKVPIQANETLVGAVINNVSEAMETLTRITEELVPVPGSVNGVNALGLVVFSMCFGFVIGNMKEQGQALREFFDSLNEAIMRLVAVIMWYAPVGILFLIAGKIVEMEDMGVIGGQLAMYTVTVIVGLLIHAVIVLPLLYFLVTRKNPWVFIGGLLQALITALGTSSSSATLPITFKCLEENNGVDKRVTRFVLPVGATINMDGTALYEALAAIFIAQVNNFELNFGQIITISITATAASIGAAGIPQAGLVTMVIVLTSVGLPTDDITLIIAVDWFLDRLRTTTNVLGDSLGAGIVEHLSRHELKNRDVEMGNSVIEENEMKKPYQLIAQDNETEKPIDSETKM
T5 sequence (P43004 whole entry, species assumed): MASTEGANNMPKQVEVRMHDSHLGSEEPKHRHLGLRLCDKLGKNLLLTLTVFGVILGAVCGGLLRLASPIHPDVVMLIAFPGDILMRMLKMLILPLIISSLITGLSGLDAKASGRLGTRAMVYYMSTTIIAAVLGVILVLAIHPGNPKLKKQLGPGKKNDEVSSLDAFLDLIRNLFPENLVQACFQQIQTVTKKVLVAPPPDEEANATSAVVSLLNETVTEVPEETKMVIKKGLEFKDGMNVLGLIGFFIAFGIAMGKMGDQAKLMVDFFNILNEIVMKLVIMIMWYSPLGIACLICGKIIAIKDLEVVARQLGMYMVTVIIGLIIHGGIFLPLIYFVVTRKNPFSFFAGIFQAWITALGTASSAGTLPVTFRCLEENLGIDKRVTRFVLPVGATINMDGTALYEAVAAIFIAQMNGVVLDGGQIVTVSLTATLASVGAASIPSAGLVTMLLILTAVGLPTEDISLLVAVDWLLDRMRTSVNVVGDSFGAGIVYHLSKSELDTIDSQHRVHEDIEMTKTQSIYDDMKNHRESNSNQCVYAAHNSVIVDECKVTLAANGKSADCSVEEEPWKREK

## O=C(OC[C@@]1(O)CN[C@H](C(=O)O)C1)c1ccc(C(O)c2ccccc2)cc1 (stereo partly shown) [SN63]
rASCT2; [3]
  Ki: 232 µM
hASCT2 [1]; [4]
  Ki: 405 µM
hASCT1; [5]
  Ki: 93 µM

## O=C(Nc1cccc(CN[C@@H]2CN[C@H](C(=O)O)C2)c1)c1ccccc1 [SN 42]
rASCT2; [6]
  Ki: 74.7 ± 18.3 µM
hASCT2 [1]; [7]
  Ki: 103 ± 11.2 µM
hASCT1; [8]
  Ki: 172 ± 24 µM

## O=C(O)[C@@H]1C[C@H](NCc2ccc(-c3ccc(C(F)(F)F)cc3)cc2)CN1 [SN 41]
hASCT2 [1]; [7]
  Ki: 1.15 ± 0.9 µM

## N[C@H](C(=O)O)[C@H](O)COC(=O)c1ccc(-c2ccccc2)cc1 [SN 35]
rASCT2; [6]
  Ki: 4.83 ± 1 µM
hASCT2 [1]; [7]
  Ki: 0.84 ± 0.2 µM

## O=C(O[C@]1(CO)CN[C@H](C(=O)O)C1)c1ccc(-c2ccc(F)cc2)cc1 [SN74]
rASCT2; [3]
  Ki: 2.16 µM
hASCT2 [1]; [4]
  Ki: 3.2 µM
hASCT1; [5]
  Ki: 2.45 µM

## O=C(O[C@@H]1CN[C@H](C(=O)O)C1)c1ccc(-c2ccccn2)cc1 [SN 18]
EAAT1
  Ki: 12.4 ± 1 µM
rASCT2; [6]
  Ki: 2.79 ± 0.7 µM
hASCT2 [1]; [7]
  Ki: 3.01 ± 0.5 µM
hASCT1; [8]
  Ki: 7.01 ± 2.1 µM

## O=C(Nc1ccc(C(=O)O[C@@H]2CN[C@H](C(=O)O)C2)cc1)c1ccccc1 [SN 14]
rASCT2; [6]
  Ki: 4.58 ± 1.1 µM

## N[C@@H](COC(=O)c1ccc(C(O)c2ccccc2)cc1)C(=O)O (stereo partly shown) [SN 27]
rASCT2; [6]
  Ki: 5.17 ± 1.2 µM

## O=C(Nc1ccc(C(=O)N[C@@H]2CN[C@H](C(=O)O)C2)cc1)c1ccccc1 [SN 48]
rASCT2; [6]
  Ki: 12.4 ± 1.8 µM
hASCT2 [1]; [7]
  Ki: 17.3 ± 2.1 µM
hASCT1; [8]
  Ki: 7.9 ± 0.5 µM

## N[C@H](C(=O)O)[C@@H](CO)OC(=O)c1ccc(-c2ccccc2)cc1 [SN 37]
rASCT2; [6]
  Ki: 7.46 ± 0.9 µM
hASCT2 [1]; [7]
  Ki: 2.71 ± 0.5 µM

## O=C(O[C@]1(CO)CN[C@H](C(=O)O)C1)c1ccc(-c2ccccc2)cc1 [SN73]
rASCT2; [3]
  Ki: 8.03 µM
hASCT2 [2]
  Competition Expt % block (given as a decimal): hASCT2: full
hASCT2 [2]; read-out: Competition Expt (h/rASCT2 Ki): hASCT2 Ki
  Ki: 22.3 µM
hASCT2 [1]; [4]
  Ki: 4.25 µM
EAAT2
  Ki: 21.4 µM

## O=C(O[C@@H]1CN[C@H](C(=O)O)C1)c1c2ccccc2cc2ccccc12 [SN 22]
rASCT2; [6]
  Ki: 10 ± 5.1 µM

## O=C(O[C@@H]1CN[C@H](C(=O)O)C1)c1cccc(-c2ccccc2)c1 [SN 06]
rASCT2; [6]
  Ki: 5.63 ± 1 µM
hASCT2 [1]; [7]
  Ki: 5.56 ± 4.7 µM

## N[C@@H](COC(=O)c1ccc(C(=O)c2ccccc2)cc1)C(=O)O [SN 26]
rASCT2; [6]
  Ki: 22 ± 4.5 µM

## O=C(OC[C@@]1(O)CN[C@H](C(=O)O)C1)c1ccc(C(=O)c2ccccc2)cc1 [SN61]
rASCT2; [3]
  Ki: 88.6 µM
hASCT2 [1]; [4]
  Ki: 108 µM
hASCT1; [5]
  Ki: 18.6 µM

## O=C(O[C@@H]1CN[C@H](C(=O)O)C1)c1ccc(OCc2ccccc2)cc1 [SN 21]
rASCT2; [6]
  Ki: 8.17 ± 1.1 µM
hASCT1; [8]
  Ki: > 100 µM
